Results as given in ChEMBL document CHEMBL2069290, “Synthesis and biological evaluation of novel oxindole derivatives for imaging neurofibrillary tangles in Alzheimer's disease” (Bioorg Med Chem Lett, 2012).
Blank lines part the entries; values can stand above or below the compound they belong to.

Experiments:
[1] = system: Intestine; assay: Biodistribution in ddY mouse intestine at 3.3 to 6.7 kBq, iv after 10 mins by gamma counting; assay type: ADME, organism-based; conditions: in vivo
[2] = system: Kidney; assay: Biodistribution in ddY mouse kidney at 3.3 to 6.7 kBq, iv after 10 mins by gamma counting; assay type: ADME, organism-based; conditions: in vivo
[3] = system: Brain; assay: Biodistribution in ddY mouse brain at 3.3 to 6.7 kBq, iv after 30 mins by gamma counting; assay type: ADME, organism-based; conditions: in vivo, 0.5 h
[4] = system: Blood; assay: Biodistribution in ddY mouse blood at 3.3 to 6.7 kBq, iv after 60 mins by gamma counting; assay type: ADME, organism-based; conditions: in vivo, 1 h
[5] = system: Stomach; assay: Biodistribution in ddY mouse stomach assessed per organ at 3.3 to 6.7 kBq, iv after 30 mins by gamma counting; assay type: ADME, organism-based; conditions: in vivo, 0.5 h
[6] = system: Spleen; assay: Biodistribution in ddY mouse spleen at 3.3 to 6.7 kBq, iv after 10 mins by gamma counting; assay type: ADME, organism-based; conditions: in vivo
[7] = system: Liver; assay: Biodistribution in ddY mouse liver at 3.3 to 6.7 kBq, iv after 60 mins by gamma counting; assay type: ADME, organism-based; conditions: in vivo, 1 h
[8] = system: Brain; assay: Biodistribution in ddY mouse brain at 3.3 to 6.7 kBq, iv after 2 mins by gamma counting; assay type: ADME, organism-based; conditions: in vivo
[9] = system: Blood; assay: Biodistribution in ddY mouse blood at 3.3 to 6.7 kBq, iv after 30 mins by gamma counting; assay type: ADME, organism-based; conditions: in vivo, 0.5 h
[10] = system: Stomach; assay: Biodistribution in ddY mouse stomach assessed per organ at 3.3 to 6.7 kBq, iv after 2 mins by gamma counting; assay type: ADME, organism-based; conditions: in vivo
[11] = system: Stomach; assay: Biodistribution in ddY mouse stomach assessed per organ at 3.3 to 6.7 kBq, iv after 10 mins by gamma counting; assay type: ADME, organism-based; conditions: in vivo
[12] = system: Heart; assay: Biodistribution in ddY mouse heart at 3.3 to 6.7 kBq, iv after 10 mins by gamma counting; assay type: ADME, organism-based; conditions: in vivo
[13] = system: Pancreas; assay: Biodistribution in ddY mouse pancreas at 3.3 to 6.7 kBq, iv after 2 mins by gamma counting; assay type: ADME, organism-based; conditions: in vivo
[14] = system: Intestine; assay: Biodistribution in ddY mouse intestine at 3.3 to 6.7 kBq, iv after 30 mins by gamma counting; assay type: ADME, organism-based; conditions: in vivo, 0.5 h
[15] = system: Spleen; assay: Biodistribution in ddY mouse spleen at 3.3 to 6.7 kBq, iv after 30 mins by gamma counting; assay type: ADME, organism-based; conditions: in vivo, 0.5 h
[16] = system: Kidney; assay: Biodistribution in ddY mouse kidney at 3.3 to 6.7 kBq, iv after 30 mins by gamma counting; assay type: ADME, organism-based; conditions: in vivo, 0.5 h
[17] = system: Blood; assay: Biodistribution in ddY mouse blood at 3.3 to 6.7 kBq, iv after 2 mins by gamma counting; assay type: ADME, organism-based; conditions: in vivo
[18] = system: Blood; assay: Biodistribution in ddY mouse blood at 3.3 to 6.7 kBq, iv after 10 mins by gamma counting; assay type: ADME, organism-based; conditions: in vivo
[19] = system: Brain; assay: Biodistribution in ddY mouse brain at 3.3 to 6.7 kBq, iv after 60 mins by gamma counting; assay type: ADME, organism-based; conditions: in vivo, 1 h
[20] = system: Kidney; assay: Biodistribution in ddY mouse kidney at 3.3 to 6.7 kBq, iv after 60 mins by gamma counting; assay type: ADME, organism-based; conditions: in vivo, 1 h
[21] = system: Liver; assay: Biodistribution in ddY mouse liver at 3.3 to 6.7 kBq, iv after 30 mins by gamma counting; assay type: ADME, organism-based; conditions: in vivo, 0.5 h
[22] = system: Spleen; assay: Biodistribution in ddY mouse spleen at 3.3 to 6.7 kBq, iv after 2 mins by gamma counting; assay type: ADME, organism-based; conditions: in vivo
[23] = system: Spleen; assay: Biodistribution in ddY mouse spleen at 3.3 to 6.7 kBq, iv after 60 mins by gamma counting; assay type: ADME, organism-based; conditions: in vivo, 1 h
[24] = system: Pancreas; assay: Biodistribution in ddY mouse pancreas at 3.3 to 6.7 kBq, iv after 10 mins by gamma counting; assay type: ADME, organism-based; conditions: in vivo
[25] = system: Heart; assay: Biodistribution in ddY mouse heart at 3.3 to 6.7 kBq, iv after 60 mins by gamma counting; assay type: ADME, organism-based; conditions: in vivo, 1 h
[26] = system: Liver; assay: Biodistribution in ddY mouse liver at 3.3 to 6.7 kBq, iv after 10 mins by gamma counting; assay type: ADME, organism-based; conditions: in vivo
[27] = system: Brain; assay: Biodistribution in ddY mouse brain at 3.3 to 6.7 kBq, iv after 10 mins by gamma counting; assay type: ADME, organism-based; conditions: in vivo
[28] = system: Heart; assay: Biodistribution in ddY mouse heart at 3.3 to 6.7 kBq, iv after 2 mins by gamma counting; assay type: ADME, organism-based; conditions: in vivo
[29] = system: Liver; assay: Biodistribution in ddY mouse liver at 3.3 to 6.7 kBq, iv after 2 mins by gamma counting; assay type: ADME, organism-based; conditions: in vivo
[30] = system: Kidney; assay: Biodistribution in ddY mouse kidney at 3.3 to 6.7 kBq, iv after 2 mins by gamma counting; assay type: ADME, organism-based; conditions: in vivo
[31] = system: Stomach; assay: Biodistribution in ddY mouse stomach assessed per organ at 3.3 to 6.7 kBq, iv after 60 mins by gamma counting; assay type: ADME, organism-based; conditions: in vivo, 1 h
[32] = system: Pancreas; assay: Biodistribution in ddY mouse pancreas at 3.3 to 6.7 kBq, iv after 30 mins by gamma counting; assay type: ADME, organism-based; conditions: in vivo, 0.5 h
[33] = system: Brain; assay: Ratio of drug uptake in ddY mouse brain after 2 mins to drug uptake in ddY mouse brain after 30 mins; assay type: ADME, tissue-based; conditions: in vivo
[34] = system: Intestine; assay: Biodistribution in ddY mouse intestine at 3.3 to 6.7 kBq, iv after 60 mins by gamma counting; assay type: ADME, organism-based; conditions: in vivo, 1 h
[35] = system: Heart; assay: Biodistribution in ddY mouse heart at 3.3 to 6.7 kBq, iv after 30 mins by gamma counting; assay type: ADME, organism-based; conditions: in vivo, 0.5 h
[36] = system: Pancreas; assay: Biodistribution in ddY mouse pancreas at 3.3 to 6.7 kBq, iv after 60 mins by gamma counting; assay type: ADME, organism-based; conditions: in vivo, 1 h
[37] = system: Intestine; assay: Biodistribution in ddY mouse intestine at 3.3 to 6.7 kBq, iv after 2 mins by gamma counting; assay type: ADME, organism-based; conditions: in vivo
[38] = species on record: Homo sapiens; assay: Selectivity ratio of Ki for amyloid beta(1 to 42) to Ki for human Tau
[39] = species on record: Homo sapiens; assay: Selectivity ratio of Kd for amyloid beta(1 to 42) to Kd for human Tau
[40] = molecular target: Amyloid-beta precursor protein (Homo sapiens, UniProt P05067); assay: Binding affinity to amyloid beta(1 to 42) aggregates after 30 mins by Thioflavin-S-based fluorescence assay
[41] = molecular target: Microtubule-associated protein tau (Homo sapiens, UniProt P10636); assay: Binding affinity to human Tau aggregates after 30 mins by Thioflavin-S-based fluorescence assay
[42] = species on record: Homo sapiens; assay: Selectivity ratio of EC50 for amyloid beta(1 to 42) to EC50 for human Tau

Chain of Amyloid-beta precursor protein (P05067 whole entry): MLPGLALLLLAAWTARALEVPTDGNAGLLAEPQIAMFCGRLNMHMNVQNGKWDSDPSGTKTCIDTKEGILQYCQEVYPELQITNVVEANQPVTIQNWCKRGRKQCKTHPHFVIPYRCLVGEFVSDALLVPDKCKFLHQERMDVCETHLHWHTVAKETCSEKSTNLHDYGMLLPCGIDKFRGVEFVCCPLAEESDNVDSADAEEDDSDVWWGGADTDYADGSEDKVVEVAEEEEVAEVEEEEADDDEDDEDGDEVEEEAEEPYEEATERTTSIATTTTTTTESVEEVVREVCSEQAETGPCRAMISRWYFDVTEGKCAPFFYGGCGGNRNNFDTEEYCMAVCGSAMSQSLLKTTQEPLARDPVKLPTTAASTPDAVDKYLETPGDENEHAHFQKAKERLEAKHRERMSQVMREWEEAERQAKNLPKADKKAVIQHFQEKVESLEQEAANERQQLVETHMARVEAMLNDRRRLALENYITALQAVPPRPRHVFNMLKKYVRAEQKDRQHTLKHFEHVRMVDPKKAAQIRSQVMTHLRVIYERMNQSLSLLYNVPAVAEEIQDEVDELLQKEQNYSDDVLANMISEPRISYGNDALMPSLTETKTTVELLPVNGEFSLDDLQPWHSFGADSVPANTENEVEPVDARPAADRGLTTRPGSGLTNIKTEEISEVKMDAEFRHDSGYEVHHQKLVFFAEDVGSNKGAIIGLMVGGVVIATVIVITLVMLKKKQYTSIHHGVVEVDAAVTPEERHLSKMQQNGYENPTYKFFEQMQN
Chain of Microtubule-associated protein tau (P10636 whole entry): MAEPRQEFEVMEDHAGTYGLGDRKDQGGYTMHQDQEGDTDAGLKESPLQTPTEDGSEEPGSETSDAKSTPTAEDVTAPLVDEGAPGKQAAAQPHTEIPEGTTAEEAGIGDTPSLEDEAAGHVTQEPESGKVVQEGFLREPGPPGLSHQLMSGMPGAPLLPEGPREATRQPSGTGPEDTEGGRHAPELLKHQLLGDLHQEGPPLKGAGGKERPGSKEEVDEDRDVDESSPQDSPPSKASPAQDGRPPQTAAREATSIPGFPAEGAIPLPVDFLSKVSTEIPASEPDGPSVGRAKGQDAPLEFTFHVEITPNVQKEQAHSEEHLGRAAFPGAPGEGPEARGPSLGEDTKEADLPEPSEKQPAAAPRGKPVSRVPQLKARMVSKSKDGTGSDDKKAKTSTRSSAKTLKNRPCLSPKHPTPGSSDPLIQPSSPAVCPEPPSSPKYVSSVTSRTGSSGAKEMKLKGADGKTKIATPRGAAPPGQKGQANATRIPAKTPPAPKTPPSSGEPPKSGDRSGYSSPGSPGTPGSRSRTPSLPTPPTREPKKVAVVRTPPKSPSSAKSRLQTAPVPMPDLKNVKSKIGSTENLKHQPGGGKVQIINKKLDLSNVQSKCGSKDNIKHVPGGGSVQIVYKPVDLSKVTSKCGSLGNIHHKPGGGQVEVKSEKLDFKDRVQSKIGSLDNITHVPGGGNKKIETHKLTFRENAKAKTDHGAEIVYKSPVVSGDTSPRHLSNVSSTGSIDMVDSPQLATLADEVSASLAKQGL

SMILES: O=C1/C(=C/c2ccc(-c3cccc([125I])c3)o2)NC(=S)N1CCc1c[nH]cn1
Ratio [33]: 2.33

SMILES: O=C1/C(=C/c2ccc(-c3cccc(I)c3)o2)NC(=S)N1CCc1c[nH]cn1
Ratio Ki [38]: 7.33

SMILES: CNc1ccc(-c2ccc3ccccc3n2)cc1
Ratio EC50 [42]: 1.65

Continued, values first:

Drug uptake [1]: 3.17 % ID/g
Drug uptake [2]: 16.57 % ID/g
Drug uptake [3]: 0.63 % ID/g
Drug uptake [4]: 2.23 % ID/g
Drug uptake [5]: 2.1 %ID
Drug uptake [6]: 4.46 % ID/g
Drug uptake [7]: 8.9 % ID/g
Drug uptake [8]: 2.52 % ID/g
Drug uptake [9]: 2.06 % ID/g
Drug uptake [10]: 0.96 %ID
Drug uptake [11]: 1.67 %ID
Drug uptake [12]: 3.42 % ID/g
Drug uptake [13]: 4.4 % ID/g
Drug uptake [14]: 7.05 % ID/g
Drug uptake [15]: 4.08 % ID/g
Drug uptake [16]: 11.38 % ID/g
Drug uptake [17]: 4.7 % ID/g
Drug uptake [18]: 3.76 % ID/g
Drug uptake [19]: 0.36 % ID/g
Drug uptake [20]: 7.55 % ID/g
Drug uptake [21]: 9.85 % ID/g
Drug uptake [22]: 3.2 % ID/g
Drug uptake [23]: 2.17 % ID/g
Drug uptake [24]: 2.54 % ID/g
Drug uptake [25]: 2.11 % ID/g
Drug uptake [26]: 11.29 % ID/g
Drug uptake [27]: 1.4 % ID/g
Drug uptake [28]: 7.94 % ID/g
Drug uptake [29]: 9.81 % ID/g
Drug uptake [30]: 11.93 % ID/g
Drug uptake [31]: 3.8 %ID
Drug uptake [32]: 1.39 % ID/g
Ratio [33]: 4
Drug uptake [34]: 10.7 % ID/g
Drug uptake [35]: 2.23 % ID/g
Drug uptake [36]: 0.94 % ID/g
Drug uptake [37]: 2.13 % ID/g
SMILES: CN(C)c1ccc(/C=C2\Nc3ccc([125I])cc3C2=O)cc1

Ratio [33]: 1.23
SMILES: CN(C)c1ccc(/N=N/c2nc3ccc(OCCOCCOCC[18F])cc3s2)cc1

Ratio [39]: 1.54
SMILES: CN(C)c1ccc(/N=N/c2nc3ccc(OCCOCCOCCF)cc3s2)cc1

Ki [40]: 5.06 µM
Ratio Ki [38]: 3.54
Ki [41]: 1.43 µM
SMILES: CNc1ccc(C=C2C(=O)Nc3ccc(I)cc32)cc1
